Data set [1] concerns Human immunodeficiency virus 1. Put plainly: Antiviral activity against HIV1 3B infected in human MT2 cells assessed as protection against viral infection by MTT method. The data set is classed as functional, organism-based. Conditions: Human immunodeficiency virus 1, 3B; call rule not given here.
The test system of data set [2] is Human immunodeficiency virus 1. Description: Antiviral activity against HIV1 3B harboring reverse transcriptase K103N/Y181C double mutant infected in human MT2 cells assessed as protection against viral infection by MTT method. Type of data set: functional, organism-based. For orientation: Tetrazolium assays rely on reduction of a dye to a coloured formazan, in cell work by metabolically active cells.

Data set [3] has as its system Human immunodeficiency virus 1. Put plainly: Antiviral activity against HIV1 3B harboring reverse transcriptase Y181C mutant infected in human MT2 cells assessed as protection against viral infection by MTT method. The data set is classed as functional, organism-based.
Data set [4] can be described thus: Cytotoxicity against human MT2 cells assessed as growth inhibition by MTT method. The data set is classed as cell-based.
Data set [5] is described as follows: Aqueous solubility of compound in pH 6.5 solution by shake flask method. The data set is classed as physicochemical. Particulars: aqueous solution pH 6.5, pH 6.5.
The mark [6] stands for this setting: Human immunodeficiency virus 1, 3B, MT2, read-out: EC50.

≈ marks a conversion by molar mass, not a printed value. A value given as a limit tells only on which side of the number the result lay.

Data on 15 compounds can be found in ChEMBL document CHEMBL4477247, “Computer-aided discovery of anti-HIV agents” (Bioorg Med Chem, 2016).

Broadly, the EC50 is the concentration giving half of the maximal effect. The CC50 is the concentration giving 50% cytotoxicity. One may read the solubility (thermodynamic) as solubility found after equilibrating the solid with the medium.

For `Cc1ccc(OCCn2ccc(=O)[nH]c2=O)c(Cc2ccccc2)c1`, the EC50 in data set [1] was 4800 nM.

`COc1ccnc(Nc2ccc(Cl)c(Oc3ccccc3)c2)n1`: in data set [1], the half-maximal effective concentration (EC50) was 2500 nM.

With `Cc1cc(Oc2ccccc2OCCn2ccc(=O)[nH]c2=O)c2cc(C#N)[nH]c2c1`, the results for the EC50 in data set [2] (setting [6]), in data set [1] and in data set [3] were 800 nM, 10 nM and “Not Active”, respectively.

Take `N#Cc1cc2c(Oc3ccccc3OCCn3ccc(=O)[nH]c3=O)cc(Cl)cc2o1`: the 50% cytotoxic concentration (CC50) in data set [4] was more than 100000 nM. Also, the EC50 stood at 260 nM in data set [2] (setting [6]), 19 nM in data set [1] and 1900 nM in data set [3] (setting [6]).

Regarding `N#Cc1cc2c(Oc3ccccc3OCCn3ccc(=O)[nH]c3=O)cccn2c1`, the half-maximal cytotoxic concentration (CC50) in data set [4] was more than 100000 nM. For the same compound, the EC50 was 11 nM in data set [2] (setting [6]), 0.38 nM in data set [1] and 310 nM in data set [3] (setting [6]).

The compound `N#Cc1ccc2c(Oc3ccccc3OCCn3ccc(=O)[nH]c3=O)cc(F)cc2c1` displayed a thermodynamic solubility in data set [5] of 9.1 µg/mL (≈ 21.8 µM).

In data set [5], `N#Cc1ccc2c(Oc3ccc(F)cc3OCCn3ccc(=O)[nH]c3=O)cc(F)cc2c1` gave a thermodynamic solubility of 82.9 µg/mL (≈ 190 µM).

Take `CSc1ccnc(Nc2ccc(C#N)c(Oc3cccc(/C=C/C#N)c3)c2)n1`: the CC50 in data set [4] was determined as 1200 nM. For the same compound, the half-maximal effective concentration (EC50) in data set [1] was 48 nM; in data set [3] (setting [6]) it was 250 nM.

As to `CC(C)=CCOc1cc(Nc2ncnc3occc23)ccc1Cl`, in data set [4], the cytotoxic concentration (CC50) was 17000 nM. For the same compound, the half-maximal effective concentration (EC50) in data set [1] was determined as 5 nM.

Turning to `CC(C)=CCOc1cc(Nc2nccn3cccc23)ccc1Cl`, the CC50 in data set [4] came to 20000 nM. For the same compound, in data set [1], the EC50 was determined as 19 nM.

In the case of `CC(C)=CCOc1cc(Nc2nccc3cccn23)ccc1Cl`, in data set [4], the half-maximal cytotoxic concentration (CC50) was 17000 nM. For the same compound, the concentration for a half-maximal effect (EC50) in data set [1] was found to be 130 nM.

With `Cc1cc(/C=C/C#N)cc(Oc2cc(Nc3ncnc(C4CC4)n3)ccc2C)c1`, the EC50 in data set [1] amounted to 1.7 nM; in data set [3] (setting [6]) it was 15 nM.

On to `Cc1cc(/C=C/C#N)cc(Oc2cc(Nc3ncnc(C4CC4)n3)ccc2Cl)c1`, for which, in data set [3] (setting [6]), the EC50 worked out at 4.9 nM.

As to `CC(C)=CCOc1cc(Nc2nccc3cc[nH]c23)ccc1Cl`, the 50% cytotoxic concentration (CC50) in data set [4] was found to be 9200 nM. In addition, the concentration giving a half-maximal response (EC50) in data set [1] was determined as 900 nM.

As for `Cc1ccnc2c1NC(=O)c1cccnc1N2C1CC1` [NEVIRAPINE], the cytotoxic concentration (CC50) in data set [4] is more than 100000 nM. The EC50 entry in data set [2] and in data set [3] was “Not Active” in each case.
